Measured values reported in patent publication US12427144B2, “Compounds and methods for the targeted degradation of androgen receptor” (Arvinas Operations, Inc., priority 2019, dated 2025).

Target: T1, Androgen Receptor (AR) (Homo sapiens, UniProt P10275)
T1 construct: endogenous in cells; host or cells: VCaP
T1 sequence (P10275 1-920): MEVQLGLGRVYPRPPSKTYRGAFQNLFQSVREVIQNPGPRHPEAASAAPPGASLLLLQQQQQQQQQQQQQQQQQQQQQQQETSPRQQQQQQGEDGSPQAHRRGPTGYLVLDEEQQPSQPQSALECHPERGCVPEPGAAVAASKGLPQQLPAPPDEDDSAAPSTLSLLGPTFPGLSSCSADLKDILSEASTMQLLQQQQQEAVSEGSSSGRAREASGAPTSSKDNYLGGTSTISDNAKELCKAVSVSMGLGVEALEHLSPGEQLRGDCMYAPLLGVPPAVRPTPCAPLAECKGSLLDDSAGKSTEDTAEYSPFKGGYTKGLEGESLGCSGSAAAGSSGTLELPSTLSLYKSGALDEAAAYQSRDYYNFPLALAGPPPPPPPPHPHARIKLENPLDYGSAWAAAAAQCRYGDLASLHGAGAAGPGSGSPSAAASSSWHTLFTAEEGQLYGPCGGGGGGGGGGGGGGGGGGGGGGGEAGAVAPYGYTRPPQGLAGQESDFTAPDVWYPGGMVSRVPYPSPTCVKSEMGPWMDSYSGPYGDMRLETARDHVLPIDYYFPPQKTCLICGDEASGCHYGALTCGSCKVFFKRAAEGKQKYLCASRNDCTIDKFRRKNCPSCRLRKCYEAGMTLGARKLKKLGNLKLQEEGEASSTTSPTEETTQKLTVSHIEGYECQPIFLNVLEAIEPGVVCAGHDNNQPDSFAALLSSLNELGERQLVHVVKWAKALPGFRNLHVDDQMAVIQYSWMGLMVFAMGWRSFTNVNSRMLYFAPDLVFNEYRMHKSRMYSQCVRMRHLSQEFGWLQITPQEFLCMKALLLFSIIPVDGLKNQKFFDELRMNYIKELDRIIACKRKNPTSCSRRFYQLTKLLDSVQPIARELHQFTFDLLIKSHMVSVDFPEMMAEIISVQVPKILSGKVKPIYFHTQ
Assay: AR immunofluorescence staining, high content imager, VCaP cells
Assay type: cell-based
Conditions: for DC50: AR degradation by immunofluorescence; for Dmax: maximal AR degradation
Procedure: AR Immunofluorescence Staining of Cells for the High Content Imager was performed as follows: Following treatment of the cells with compound (using the central 60 wells of a 96-well plate), media was removed by aspiration, followed by addition of 50 μL per well of 4% paraformaldehyde (PFA) in PBS supplemented with 2 mM MgCl2 and 2 mM CaCl2. Fixed cells were incubated at RT for 15 minutes. For particularly low adherence cell lines (e.g., VCaP), a 2× solution of 8% PFA was added directly to wells instead. Cells were washed once with 200 μL PBS/well. To permeabilize cells 50 μL/well of 0.1% Triton X-100 in PBS was added and incubated for 5 minutes. Cells were washed once with 200 μL PBSS/well. 100 μL/well of Licor Odyssey Blocking Buffer was added for 1 hour at 20° C. Wells were aspirated and AR antibody (1:1000 in Licor Odyssey blocking buffer; 50 μL/well; CST 5153s) was added. Plates were incubated overnight at 4° C. Plates were washed 3 times with 200 EL PBS/well. The appropriate secondary antibody was added (50 μL/well; diluted in Licor Odyssey blocking buffer) and incubated for 1 hour at RT in the dark as prepared below using Anti-rabbit FITC (1:5000; […]) and Phalloidin-Alexafluor 648 (1:500; […]). Cells were washed once with 200 μL PBS/well. 50 μL DAPI or Hoechst 33342 diluted 1:1000 in Licor Odyssey blocking buffer was added to the wells. Cells were washed 3 times with 200 μL PBS/well. The plates were covered with a clear plastic sealer and refrigerated in the dark until ready to analyze. The cells were analyzed using a Molecular Devices IXM high content imager and analyzed using Molecular Devices metaXpress software suite.

| SMILES | DC50 | Dmax |
| --- | --- | --- |
| CN(C(=O)c1ccc(N2CCN(CC3CCN(c4ccc(C(=O)N[C@H]5CC[C@H](Oc6ccc(C#N)c(Cl)c6)CC5)nn4)CC3)CC2)cc1F)C1CCC(=O)NC1=O (stereo partly drawn) [Compound 31, N-((1R,4R)-4-(3-chloro-4-cyanophenoxy)cyclohexyl)-6-(4-((4-(4-((2,6-dioxopiperidin-3-yl)(methyl)carbamoyl)-3-fluorophenyl)piperazin-1-yl)methyl)piperidin-1-yl)pyridazine-3-carboxamide] | < 1 nM | 50 to 70% |
| Cc1cc(O[C@H]2C(C)(C)[C@H](NC(=O)c3ccc(N4CCO[C@H](CN(C(C)C)[C@H]5C[C@@H](Oc6ccc(C(=O)N[C@H]7CCC(=O)NC7=O)c(F)c6)C5)C4)cc3)C2(C)C)cc(C)c1C#N [Compound 47, 4-[(2R)-2-{[(propan-2-yl)[(1r,3r)-3-(4-{[(3S)-2,6-dioxopiperidin-3-yl]carbamoyl}-3-fluorophenoxy)cyclobutyl]amino]methyl}morpholin-4-yl]-N-[(1r,3r)-3-(4-cyano-3,5-dimethylphenoxy)-2,2,4,4-tetramethylcyclobutyl]benzamide] | < 1 nM | ≥ 70% |
| Cc1cc(O[C@H]2C(C)(C)[C@H](NC(=O)c3ccc(N4CCC(CN5CCOCCCCOc6ccc(C(=O)NC7CCC(=O)NC7=O)cc6O[C@H]6C[C@H]5C6)CC4)cc3)C2(C)C)cc(C)c1C#N (some centres unmarked) [Compound 74, (1r,18r)-N-(2,6-dioxopiperidin-3-yl)-17-{[1-(4-{[(1r,3r)-3-(4-cyano-3,5-dimethylphenoxy)-2,2,4,4-tetramethylcyclobutyl]carbamoyl}phenyl)piperidin-4-yl]methyl}-2,9,14-trioxa-17-azatricyclo[16.1.1.0^3,8]icosa-3(8),4,6-triene-5-carboxamide] | < 1 nM | < 50% |
| COc1cc(O[C@H]2C[C@H](N3CCOC4(CCN(c5ccc(C(=O)N[C@H]6C(C)(C)[C@H](Oc7cc(C)c(C#N)c(C)c7)C6(C)C)cc5)CC4)C3)C2)ccc1C(=O)NC1CCC(=O)NC1=O (some centres unmarked) [Compound 53, N-(2,6-dioxopiperidin-3-yl)-2-methoxy-4-[(1r,3r)-3-[9-(4-{[(1r,3r)-3-(4-cyano-3,5-dimethylphenoxy)-2,2,4,4-tetramethylcyclobutyl]carbamoyl}phenyl)-1-oxa-4,9-diazaspiro[5.5]undecan-4-yl]cyclobutoxy]benzamide] | < 1 nM | ≥ 70% |
| N#Cc1ccc(O[C@H]2CC[C@H](NC(=O)c3ccc(N4CCC(CN5CCN(c6ccc(C(=O)NC7CCC(=O)NC7=O)nn6)CC5)CC4)nn3)CC2)cc1Cl (some centres unmarked) [Compound 28, N-[4-(3-chloro-4-cyano-phenoxy)cyclohexyl]-6-[4-[[4-[6-[(2,6-dioxo-3-piperidyl)carbamoyl]pyridazin-3-yl]piperazin-1-yl]methyl]-1-piperidyl]pyridazine-3-carboxamide] | < 1 nM | ≥ 70% |
| Cc1cc(O[C@H]2C(C)(C)[C@H](NC(=O)c3ccc(N4CCO[C@@H](CN(C(C)C)[C@H]5C[C@H](Oc6ccc(C(=O)N[C@H]7CCC(=O)NC7=O)c(F)c6)C5)C4)cc3)C2(C)C)cc(C)c1C#N [Compound 65, 4-[(2S)-2-{[(propan-2-yl)[(1r,3r)-3-(4-{[(3S)-2,6-2,2,4,4-dioxopiperidin-3-yl]carbamoyl}-3-fluorophenoxy)cyclobutyl]amino]methyl}morpholin-4-yl]-N-[(1r,3r)-3-(4-cyano-3,5-dimethylphenoxy)-2,2,4,4-tetramethylcyclobutyl]benzamide] | < 1 nM | 50 to 70% |
| Cc1cc(O[C@H]2C(C)(C)[C@H](NC(=O)c3ccc(N4CCC5(CC4)CN([C@H]4C[C@H](Oc6ccc(C(=O)NC7CCC(=O)NC7=O)cc6)C4)CCO5)cc3)C2(C)C)cc(C)c1C#N (some centres unmarked) [Compound 68, N-[(1r,3r)-3-(4-cyano-3,5-dimethylphenoxy)-2,2,4,4-tetramethylcyclobutyl]-4-{4-[(1r,3r)-3-{4-[(2,6-dioxopiperidin-3-yl)carbamoyl]phenoxy}cyclobutyl]-1-oxa-4,9-diazaspiro[5.5]undecan-9-yl}benzamide] | 1 to 10 nM | 50 to 70% |

Second part, the compound after the results:

| DC50 | Dmax | SMILES |
| --- | --- | --- |
| 10 to 100 nM | ≥ 70% | COc1cc(O[C@H]2C(C)(C)[C@H](NC(=O)c3ccc(N4CCC(CN5CCN(c6ccc(F)c(C(=O)N[C@H]7CCC(=O)NC7=O)c6)CC5)CC4)cc3)C2(C)C)ccc1C#N [Compound 69, N-[(3S)-2,6-dioxopiperidin-3-yl]-2-fluoro-5-(4-{[1-(4-{[(1r,3r)-3-(4-cyano-3-methoxyphenoxy)-2,2,4,4-tetramethylcyclobutyl]carbamoyl}phenyl)piperidin-4-yl]methyl}piperazin-1-yl)benzamide] |
| < 1 nM | ≥ 70% | Cc1cc(O[C@H]2C(C)(C)[C@H](NC(=O)c3ccc(N4CCC(CN5CCN(c6ccc(C(=O)NC7CCC(=O)NC7=O)c(F)c6)CC5)CC4)cc3)C2(C)C)cc(C)c1C#N (stereo partly drawn) [Compound 20, 4-(4-((1-(4-(((1R,3R)-3-(4-cyano-3,5-dimethylphenoxy)-2,2,4,4-tetramethylcyclobutyl)carbamoyl)phenyl)piperidin-4-yl)methyl)piperazin-1-yl)-N-(2,6-dioxopiperidin-3-yl)-2-fluorobenzamide] |
| < 1 nM | ≥ 70% | COCCN(C[C@H]1CN(c2ccc(C(=O)N[C@H]3C(C)(C)[C@@H](Oc4ccc(C#N)c(OC)c4)C3(C)C)cc2)CCO1)[C@H]1C[C@H](Oc2ccc(C(=O)N[C@@H]3CCC(=O)NC3=O)c(F)c2)C1 [Compound 50, 4-[(2S)-2-{[(2-methoxyethyl)[(1r,3r)-3-(4-{[(3R)-2,6-dioxopiperidin-3-yl]carbamoyl}-3-fluorophenoxy)cyclobutyl]amino]methyl}morpholin-4-yl]-N-[(1r,3r)-3-(4-cyano-3-methoxyphenoxy)-2,2,4,4-tetramethylcyclobutyl]benzamide] |
| < 1 nM | ≥ 70% | Cc1cc(O[C@H]2C(C)(C)[C@H](NC(=O)c3ccc(N4CCC(CN5CCN(c6ccc(C(=O)N[C@H]7CCC(=O)NC7=O)nc6)CC5)CC4)cc3)C2(C)C)cc(C)c1C#N [Compound 41, 5-[4-[[1-[4-[[3-(4-cyano-3,5-dimethyl-phenoxy)-2,2,4,4-tetramethyl-cyclobutyl]carbamoyl]phenyl]-4-piperidyl]methyl]piperazin-1-yl]-N-[(3S)-2,6-dioxo-3-piperidyl]pyridine-2-carboxamide] |
| < 1 nM | ≥ 70% | COc1cc(O[C@H]2C(C)(C)[C@H](NC(=O)c3ccc(N4CCC(CN5CCN(c6ccc(C(=O)NC7CCC(=O)NC7=O)c(F)c6)CC5)CC4)cc3)C2(C)C)ccc1C#N (stereo partly drawn) [Compound 1, 4-(4-((1-(4-(((1R,3R)-3-(4-cyano-3-methoxyphenoxy)-2,2,4,4-tetramethylcyclobutyl)carbamoyl)phenyl)piperidin-4-yl)methyl)piperazin-1-yl)-N-(2,6-dioxopiperidin-3-yl)-2-fluorobenzamide] |
| < 1 nM | ≥ 70% | COc1cc(C(=O)NC2CCC(=O)NC2=O)ccc1N1CCN(C[C@H]2CN(c3ccc(C(=O)N[C@H]4C(C)(C)[C@H](Oc5cc(C)c(C#N)c(C)c5)C4(C)C)cc3)CCO2)CC1 (stereo partly drawn) [Compound 56, N-(2,6-dioxopiperidin-3-yl)-3-methoxy-4-(4-{[(2S)-4-(4-{[(1r,3r)-3-(4-cyano-3,5-dimethylphenoxy)-2,2,4,4-tetramethylcyclobutyl]carbamoyl}phenyl)morpholin-2-yl]methyl}piperazin-1-yl)benzamide] |
